System: bladder control problems (urinary frequency, nocturia, stress incontinence, interstitial cystitis)
Test: Case studies
Type: in vivo, human
Protocol: person with a history of bladder frequency since childhood. They were diagnosed as a child, via cystometric studies, as having a small bladder. They were not medicated.
They presented urinary frequency, every 1.5 hours; nocturia (waking for the toilet at night) every 1.5 to 2.5 hours.
If consumed large quantities of alcohol (greater than 8 standard drinks), would experience flooding nocturesis (bed wetting). […]
person with stress incontinence (2-7 times daily) and urinary frequency (11 times daily). […] When presented, they were using oxybutynin patches (Oxytrol). A specialist recommended that they change patches every 3 days.
Person presented with interstitial cystitis that had been worsening for at least the past 5 years. They presented with penile pain (and some lower abdominal pain) that would increase in intensity the fuller their bladder, with relief on urination. As a result, they would need to urinate at least every 1.5 hours, day and night. If they went too long, the pain would increase to the point where they found it extremely difficult to walk or move. Every month, they would have an episode, usually during the night, where they would pass copious amounts of blood and some mucous from the bladder.
They would also find that every two weeks their symptom severity would increase and they would have “horrific, sharp pain all day every day” for two days. […]

Compound	tolerability of previously tried drugs (in vivo)	tolerability of previously tried drugs (Case 2, patient history)
Cc1ccc(O)c([C@H](CCN(C(C)C)C(C)C)c2ccccc2)c1 [Detrol]	could not tolerate the side effects of dry mouth and nasal passages	–
CCN(CC)CC#CCOC(=O)C(O)(c1ccccc1)C1CCCCC1 (centres unmarked) [oxybutynin]	–	could not tolerate the side effects of dry mouth and nasal passages
